Source: publication PMC6179059, “Pharmacophore-based discovery of 2-(phenylamino)aceto-hydrazides as potent eosinophil peroxidase (EPO) inhibitors” (Journal of Enzyme Inhibition and Medicinal Chemistry, 2018)
Where two headings read alike, the source gives them in different places.

Legend:
[1] = target: T1, eosinophil peroxidase (EPO) (Homo sapiens, UniProt P11678); experiment: Inhibition of EPO-mediated bromination, monochlorodimedone (MCD) assay; format: biochemical
T1 construct: Eosinophil peroxidase was purified from human white blood cells to a purity index (A413/A280) of at least 1.0; from tissue; host or cells: human white blood cells
T1 sequence (P11678 251-715 limits assumed): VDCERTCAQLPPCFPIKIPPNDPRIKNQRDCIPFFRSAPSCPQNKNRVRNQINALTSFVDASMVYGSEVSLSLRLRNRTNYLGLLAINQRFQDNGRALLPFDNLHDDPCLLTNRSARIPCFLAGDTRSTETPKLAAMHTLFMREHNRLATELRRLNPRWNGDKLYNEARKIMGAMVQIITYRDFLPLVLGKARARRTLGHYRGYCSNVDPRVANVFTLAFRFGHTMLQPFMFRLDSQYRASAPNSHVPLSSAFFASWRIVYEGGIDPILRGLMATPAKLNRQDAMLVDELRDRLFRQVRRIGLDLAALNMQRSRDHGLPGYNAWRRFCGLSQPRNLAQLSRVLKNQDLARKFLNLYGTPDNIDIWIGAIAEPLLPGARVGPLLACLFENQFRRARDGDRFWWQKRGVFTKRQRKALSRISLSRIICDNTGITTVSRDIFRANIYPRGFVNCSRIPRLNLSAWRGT
T1 sequence (P11678 140-250 limits assumed): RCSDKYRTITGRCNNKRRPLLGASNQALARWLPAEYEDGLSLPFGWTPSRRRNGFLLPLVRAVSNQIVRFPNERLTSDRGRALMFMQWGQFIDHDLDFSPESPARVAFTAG
Experimental: Eosinophil peroxidase was purified from human white blood cells to a purity index (A413/A280) of at least 1.0 as described by Olsen and Little[27]. Its concentration was calculated using ε413 nm 110 000 M^−1 cm−1[28] Hydrogen peroxide, obtained as a 30% solution from Sigma Chemical Co., was diluted and the concentration determined by the absorbance measurement at 240 nm where the extinction coefficient is 39.4 M^−1 cm−1[29]. The other chemicals were also purchased from Sigma Chemical Co. at the highest grade available.
Halogenation activity was measured spectrophotometrically (Hitachi U-3000) using the monochlorodimedone (MCD) assay. MCD (100 µM) was dissolved in 100 mM phosphate buffer, pH 7.0 containing either bromide (100 mM) or chloride (100 mM) and 20 nM EPO. Upon addition of 100 µM H2O2 MCD was converted into dibromodimedone. […] If necessary the inhibitor stock solutions were prepared in dimethylsulfoxide (DMSO) and stored in dark flasks. Dilution was performed with 100 mM phosphate buffer, pH 7.0, to a final DMSO concentration of maximal 2% (v/v) in all assays. […] The inhibitor concentration that inhibited eosinophil peroxidase-dependent oxidation of MCD by 50% (IC50) was determined by fitting a rectangular hyperbola to the dose-response curve using nonlinear regression (see supplemental information A). All measurements were made in triplicate.
The 277 selected compounds were tested for inhibition. Monochlorodimedon (MCD) was used to monitor inhibition of EPO-mediated bromination. It turned out that certain compounds such as hydrazides are able to inhibit the EPO. Table 3 lists the IC50 values of four different 4-chlorophenyl derivatives of hydrazides and acetic acid. […] It is apparent that a free terminal amino group, which could act as an […] is essential for a strong inhibition, additional to steric and/or electrochemical properties of these compounds.
Supplementary Figure S1: IC 50 plots of inhibition of EPO halogenation activity. Figure A- […]
20 nM EPO and 200 µM hydrogen peroxide. Reactions were carried out in 100 mM phosphate buffer, pH 7, at 25 °C, Data are means of triplicate experiments. The inhibitory effect of each inhibitor was measured by determining the concentration at which it inhibited oxidation of MCD by 50% (IC50).

[2] = test system: T2, EPO Compound I; experiment: Sequential-mixing stopped-flow: reaction of EPO Compound I with inhibitors; format: biochemical, human; conditions: for apparent second-order rate constant for Compound I reduction (k3): 100 mM phosphate buffer, pH 7.0, 25 °C; for type of inhibition (reversible / irreversible): concluded from pre-steady-state kinetics
T2 construct: Eosinophil peroxidase was purified from human white blood cells to a purity index (A413/A280) of at least 1.0; from tissue; host or cells: human white blood cells
Experimental: (§1) The sequential stopped-flow apparatus (model SX-18 MV) and the associated computer system were from Applied Photophysics (UK). Because of the inherent instability of Compound I of EPO, the sequential stopped-flow (multi-mixing) technique was used for determination of rate of the reaction of Compound I with different inhibitors. Similar to bovine LPO, human EPO Compound I could be formed with equimolar concentrations of H2O2. In a typical experiment, 2 µM EPO was premixed with 2 µM H2O2 in the aging loop. After 100 ms of delay, the formed Compound I was mixed with increasing concentrations of different inhibitors. Formation and reduction of Compound II by compound 10 was investigated by following the biphasic time trace at 423 nm, where the transition of Compound I to Compound II and further to the […] can be followed. The kinetic traces were fitted using the double-exponential equation of the Applied Photophysics software. At least three determinations (2000 data points) of pseudo-first-order rate constants (kobs) from the first phase of the reaction were performed for each substrate concentration and the mean value was used in the calculation of the second-order rate constants, which were calculated from the slope of the line defined by a plot of kobs versus substrate concentration. Compound 11 was investigated by following the biphasic time traces at 430 nm the maximum absorbance of Compound II. All reactions were followed both at single wavelengths as well as with a diode-array detector. Polychromatic data were analysed with Pro-Kineticist from Applied Photophysics. The program simultaneously fits the kinetic traces at all wavelengths to the proposed reaction mechanism and simulates the spectra of all reactant, product and intermediate species as well as their time-dependent distribution on the reaction coordinate. All measurements were done in 100 mM phosphate buffer, pH 7.0, at 25 °C with a minimum of three repeats.
In order to determine the mechanism of inhibition of EPO with aceto-hydrazide, acetic acid and thioacetic acid derivatives, a pre-steady-state kinetic study was performed with sequential-mixing stopped-flow spectroscopy. Three redox intermediates are relevant in the enzymology of EPO, namely Compound I, Compound II and Compound III (Figure 3). […] Alternatively, Compound I can also be reduced back by two one-electron reduction steps via Compound II (k3 and k4), Figure 3). The ferric enzyme can be reduced to ferrous enzyme (k5). Compound III can be formed either from ferric enzyme by reversible binding of superoxide (O2^–) (k6) or from the ferrous enzyme by reversible binding of dioxygen (O2) (k7). […]
(§2) Firstly we investigated compound 10. […] Compound I reduction with compound 10 was measured at 423 nm. […]

[3] = test system: T3, EPO Compound II; experiment: Sequential-mixing stopped-flow: reaction/transition of EPO Compound II with inhibitors; format: biochemical, human; conditions: pH 7.0, 25 °C; for apparent second-order rate constant for Compound II reduction (k4): 100 mM phosphate buffer
T3 construct: Eosinophil peroxidase was purified from human white blood cells to a purity index (A413/A280) of at least 1.0; from tissue; host or cells: human white blood cells
Experimental: as §1, with “repeats. […]” for “repeats.”
as §2

[4] = test system: dextran sulfate-induced model of ulcerative colitis; parameters: method as in PMID 15100311; conditions: wild-type mice; cited from earlier work
[5] = training and test set compounds of the pharmacophore model, read-out: EPO IC50
[6] = as stated in text (abstract, conclusion), read-out: IC50
[7] = Table 3, 20 nM EPO, 100 mM bromide, 100 µM H2O2, pH 7.0, read-out: IC50 value
[8] = Table 4, 20 nM EPO, 100 mM bromide, 100 µM H2O2, pH 7.0, read-out: IC50 value

| Compound | IC50 [1, 5] | IC50 [1, 8] | further results |
| --- | --- | --- | --- |
| NNC(=O)c1nn(-c2ccccc2C(F)(F)F)cc1O [Compound 1, reference compound] | 0.05 µM | – | – |
| Cn1c(=O)[nH]c(=O)c2c1nc(NCCCO)n2CCO [Compound 2, reference compound] | 0.12 µM | – | – |
| NNC(=O)c1ccccc1O [Compound 3, reference compound] | 0.075 µM | – | – |
| NNC(=O)c1nn(-c2ccccc2)cc1O [Compound 4, reference compound] | 0.42 µM | – | – |
| NNc1cc(Cl)ccc1[N+](=O)[O-] [Compound 5, reference compound] | 0.77 µM | – | – |
| CC/N=c1/scc(-c2ccc(O)c(C(N)=O)c2)n1CC [Compound 6, reference compound] | 0.98 µM | – | – |
| C=CCNc1nc2c(c(=O)[nH]c(=O)n2C)n1CC(O)CO (stereo not shown) [Compound 7, reference compound] | 1.05 µM | – | – |
| COc1ccc2[nH]cc(CCNC(C)=O)c2c1 [Compound 8, reference compound] | 2.9 µM | – | – |
| NNC(=O)c1ccc(O)cc1O [Compound 9, reference compound] | 3.52 µM | – | – |
| NNC(=O)CNc1ccc(Cl)cc1 [Compound 10, 2-[(4-chlorophenyl)amino]-acetohydrazide] | – | – | IC50 [1, 6]: 0.021 µM; apparent second-order rate constant for Compound I reduction (k3) [2]: 9.2e+06 M⁻¹ s⁻¹; type of inhibition (reversible / irreversible) [2]: irreversible inhibitor; rate constant for transition Compound II - Compound III ([3]; independent of inhibitor concentration): ~1.2 s⁻¹ |
| O=C(O)CNc1ccc(Cl)cc1 [Compound 11, 2-[(4-chlorophenyl)amino]-acetic acid] | – | – | IC50 [1, 7]: 0.205 ± 0.03 µM; apparent second-order rate constant for Compound I reduction (k3) [2]: 6.9e+06 M⁻¹ s⁻¹; type of inhibition (reversible / irreversible) [2]: reversible inhibitor; apparent second-order rate constant for Compound II reduction (k4) [3]: 11000 M⁻¹ s⁻¹ |
| NNC(=O)CSc1ccc(Cl)cc1 [Compound 12, 2-(4-chlorophenyl) thio-acetohydrazide] | – | – | apparent second-order rate constant for Compound II reduction (k4) [3]: 140000 M⁻¹ s⁻¹ |
| NNC(=O)COc1ccc(Cl)cc1 [Compound 13, 2-(4-chlorophenoxy)-aceto-hydrazide] | – | – | IC50 [1, 7]: 4.9 ± 0.1 µM |
| NNC(=O)CNc1ccccc1F [Compound 19, 2-[(2-fluorophenyl)amino]-aceto-hydrazide] | – | 0.01 ± 0.005 µM | IC50 [1, 6]: 0.01 µM |
| NNC(=O)CNc1ccccc1Cl [Compound 22, 2-Chloro-PAAH] | – | 0.91 ± 0.04 µM | – |
| NNC(=O)CNc1cccc(Br)c1 [Compound 23, 3-Bromo-PAAH] | – | 0.823 ± 0.06 µM | – |
| Oc1cccc(O)c1 [resorcinol] | – | – | disease activity parameters (weight loss, colon shrinkage, colonic bleeding) [4]: diminished |

More lines, main results first:

| IC50 [1, 5] | IC50 [1, 8] | Compound | further results |
| --- | --- | --- | --- |
| – | 2.9 ± 0.1 µM | NNC(=O)CNc1ccccc1 [Compound 14, PAAH] | – |
| – | 2.27 ± 0.09 µM | Cc1ccc(NCC(=O)NN)cc1 [Compound 15, 4-Methyl-PAAH] | – |
| – | 0.172 ± 0.03 µM | NNC(=O)CNc1ccc(F)cc1 [Compound 16, 4-Fluoro-PAAH] | – |
| – | 0.823 ± 0.08 µM | NNC(=O)CNc1ccc(Br)cc1 [Compound 17, 4-Bromo-PAAH] | – |
| – | 0.29 ± 0.02 µM | NNC(=O)CNc1ccc(I)cc1 [Compound 18, 4-Iodo-PAAH] | – |
| – | 0.02 ± 0.006 µM | NNC(=O)CNc1ccc(F)cc1F [Compound 20, 2,4-di Fluoro-PAAH] | – |
| – | 0.034 ± 0.005 µM | NNC(=O)CNc1ccc(F)c(Cl)c1 [Compound 21, 3-Chloro-4-fluoro-PAAH] | – |
